Measured values taken from article PMC4926070, “Cembranoids from a Chinese Collection of the Soft Coral Lobophytum crassum” (Marine Drugs, 2016).
Read-outs that look alike come from different tables or passages of the source.

Tests used:
[1] = tested on: LPS-induced NO production in mouse peritoneal macrophages (PEMФ); assay: Inhibition of lipopolysaccharide (LPS)-induced nitric oxide (NO) production; format: cell-based; conditions: Peritoneal macrophage, compounds tested at 1–30 μM, read-out: IC50, inhibitory activity against LPS-induced NO production
Experimental: All compounds were tested for their in vitro anti-inflammatory activities. Nitric oxide (NO) is an important signaling molecule that is involved in the regulation of diverse physiological and pathological processes. Overproduction of NO is associated with various human diseases, particularly acute and chronic inflammation, while the level of NO can reflect the degree of inflammation.
(§1) A previously established protocol was followed except that 30 mM dexamethasone in DMSO was used as the positive control and each test compound (30 mM in DMSO) was diluted to 1–30 μM at r.t. before the experiment.

[2] = Cytotoxicity against mouse peritoneal macrophages; format: cell-based
Experimental: as §1

[3] = mouse peritoneal macrophages, read-out: CC50, cytotoxicity against mouse peritoneal macrophages

| Compound | IC50 [1] | CC50 [2, 3] | CC50 [2] |
| --- | --- | --- | --- |
| COC(=O)C1=CCCC2(C)OC2CCC(C(=O)OC)=CC=C(C(C)C)CC1 (stereo not shown) [Compound 1, Locrassumin A] | 17 ± 3 µM | > 60 µM | – |
| COC1(C)CC=CC(C)(O)CCC2=C(C)COC2C=C(C)CCC1O (stereo not drawn) [Compound 7, (2R*,7R*,8S*,12S*,1Z,3E,10E)-8-methoxy-2,16-epoxycembra-1(15),3,10-trien-7,12-diol] | 13 ± 2 µM | > 60 µM | – |
| CC1=C2CC/C(C)=C/CC[C@@]3(C)O[C@@H]3CC/C(C)=C/[C@H]2OC1=O [Compound 12, ent-sarcophine] | 24 ± 2 µM | – | > 60 µM |

Second part, led by results:

| IC50 [1] | Compound | CC50 [2, 3] | CC50 [2] |
| --- | --- | --- | --- |
| 8 ± 1 µM | COC(=O)/C1=C\CC[C@@]2(C)O[C@@H]2CC/C(C(=O)OC)=C/C=C(/C(C)C)CC1 [Compound 13, sarcophytonolide O] | > 60 µM | – |
| 12 ± 2 µM | COC(=O)/C1=C\C=C(\C(C)C)CCC2=CCC[C@](C)(OC2=O)C(=O)CC1 [Compound 17, ketoemblide] | > 60 µM | – |
